# According to patent US20100151039A1, “SKIN MOISTURIZING AGENT FOR ORAL INTAKE AND FUNCTIONAL FOODS AND DRINKS” (CALPIS CO., LTD., priority 2003, published 2010):
# Legend:
# [1] = system: serine palmitoyl transferase (SPT) mRNA; assay: Ability to promote synthesis of SPT: RT-PCR of SPT mRNA in normal human epidermic cells; conditions: 0.63 v/v % in medium, 24 hours; relative value, control = 100, standardized to cyclophilin mRNA
# Description: (§1) A 35 mm culture dish was seeded with the epidermic cells at a cell concentration of 5×10^5 cells per dish, and subjected to culture for 24 hours.
# (§2) (2) After the culture, the cells were washed with PBS (−), and lysed with 500 μl, per dish of TRIzol reagent (trade name, manufactured by Gibco BRL). 100 μL per dish of chloroform was added and mixed thoroughly. The supernatant aqueous phase was recovered by centrifugation, and RNAs were precipitated with 2-propanol to obtain the total RNAs. The obtained total RNAs were washed with 75% cold ethanol, and dissolved in diethyl pyrocarbonate (DEPC)-treated water.
# (§3) (3) 1 μg of the RNAs dissolved in DEPC-treated water was subjected to RT-PCR using One step RT-PCR kit (trade name, manufactured by Qiagen) in accordance with its protocol under the conditions and with the primers shown in Table 2, to reverse transcript and amplify the cDNA corresponding to serine palmitoyl transferase (SPT) mRNA, filaggrin mRNA, or cyclophilin RNA.
# (§4) (4) After the reaction, the reaction product was fractionated by 1% agarose gel electrophoresis. The electrophoresis gel was stained with ethidium bromide, and photographed under UV irradiation on a transilluminator, to determine the band intensity.
# The test was conducted twice.
# [2] = system: filaggrin mRNA; assay: Ability to promote synthesis of filaggrin: RT-PCR of filaggrin mRNA in normal human epidermic cells; conditions: 0.63 v/v % in medium, 24 hours; relative value, control = 100, standardized to cyclophilin mRNA
# Description: as §1, §2, §3, §4
# The test was conducted twice.
smiles,measurement,setting,value
CC(O)C(=O)O (stereo not shown) [lactic acid],"Effect on expression of SPT mRNA of normal human epidermic cells, 1st Test",[1],91
same,"Effect on expression of SPT mRNA of normal human epidermic cells, 2nd Test",[1],111
same,"Effect on expression of filaggrin mRNA of normal epidermic cells, 1st Test",[2],15
same,"Effect on expression of filaggrin mRNA of normal epidermic cells, 2nd Test",[2],132
